Laboratory results taken from patent publication US10138265B2, “Uridine nucleoside derivatives, compositions and methods of use” (Tufts University, priority 2013, dated 2018).
Where two headings read alike, the source gives them in different places. Blank lines part the entries; values can stand above or below the compound they belong to.

Tests used:
[1] = molecular target: T1, P2Y2 receptor (Homo sapiens, UniProt P41231); assay: Ca2+ mobilizing effect (fluo-4) in 1321N1 astrocytoma cells expressing P2Y2; format: cell-based; conditions: 1321N1 human astrocytoma cells expressing P2Y2
T1 construct: expressed in transfected cells; host or cells: 1321N1 human astrocytoma cells
T1 sequence (P41231 whole entry): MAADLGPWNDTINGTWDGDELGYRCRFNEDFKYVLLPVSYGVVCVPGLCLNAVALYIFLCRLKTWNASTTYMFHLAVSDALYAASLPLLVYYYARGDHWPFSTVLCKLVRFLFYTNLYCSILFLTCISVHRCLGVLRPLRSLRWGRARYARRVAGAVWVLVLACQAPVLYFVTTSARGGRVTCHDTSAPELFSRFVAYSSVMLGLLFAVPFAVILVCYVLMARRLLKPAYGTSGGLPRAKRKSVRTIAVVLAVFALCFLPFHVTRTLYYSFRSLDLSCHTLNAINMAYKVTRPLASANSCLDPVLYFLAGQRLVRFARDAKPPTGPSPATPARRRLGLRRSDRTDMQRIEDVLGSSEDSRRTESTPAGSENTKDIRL
Method: (§1) Synthetic ligands were tested for activation of P2Y6 receptor by measuring receptor induced Ca^2+ changes with the fluorescent Ca^2+ indicator fluo-4. 1321N1 human astrocytoma cell lines either expressing P2Y2, P2Y4 or P2Y6 receptors were plated into 24-well plates. Two days after plating, fluorometric measurements were made and responses of cells to a serial dilution of ligands were determined P2Y6 receptor mediated Ca^2+ fluorescent change was determined by normalized accumulation of fluorescent change of 3 timepoints after ligand administration subtracted by value from ACSF control. Changes in fluorescent intensity were plotted corresponding to ligand concention in GraphPad. Dose-response curve and EC50 for each ligand was estimated using nonlinear curve fit and Sigmoidal dose-response analysis. […]
(§2) Synthetic ligands were tested for activation of P2Y6 receptor by measuring receptor induced Ca^2+ changes with the fluorescent Ca^2+ indicator fluo-4, and results are shown in FIG. 10(A)-(K). […] Two days after plating, fluorometric measurements were made and responses of cells to a serial dilution of ligands were determined P2Y6 receptor mediated Ca^2+ fluorescent change was determined by normalized accumulation of fluorescent change of 3 timepoints after ligand administration subtracted by value from ACSF control. […]

[2] = molecular target: T2, P2Y4 receptor (Homo sapiens, UniProt P51582); assay: Ca2+ mobilizing effect (fluo-4) in 1321N1 astrocytoma cells expressing P2Y4; format: cell-based; conditions: 1321N1 human astrocytoma cells expressing P2Y4
T2 construct: expressed in transfected cells; host or cells: 1321N1 human astrocytoma cells
T2 sequence (P51582 whole entry): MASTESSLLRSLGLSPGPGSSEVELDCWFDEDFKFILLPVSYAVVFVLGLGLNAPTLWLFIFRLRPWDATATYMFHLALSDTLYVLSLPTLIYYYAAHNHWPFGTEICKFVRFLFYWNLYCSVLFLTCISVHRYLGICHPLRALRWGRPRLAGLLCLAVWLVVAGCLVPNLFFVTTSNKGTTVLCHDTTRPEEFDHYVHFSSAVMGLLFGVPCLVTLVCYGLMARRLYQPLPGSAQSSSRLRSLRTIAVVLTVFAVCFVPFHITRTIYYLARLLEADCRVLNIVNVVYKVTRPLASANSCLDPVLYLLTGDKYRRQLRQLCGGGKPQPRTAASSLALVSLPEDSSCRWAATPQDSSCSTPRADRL
Method: as §1, §2

[3] = molecular target: T3, P2Y6 receptor (Homo sapiens, UniProt Q15077); assay: Activation of P2Y6 receptor: receptor induced Ca2+ changes with fluo-4 in 1321N1 astrocytoma cells; format: cell-based; parameters: expressed in transfected cells; host or cells: 1321N1 human astrocytoma cells
T3 sequence (Q15077 whole entry): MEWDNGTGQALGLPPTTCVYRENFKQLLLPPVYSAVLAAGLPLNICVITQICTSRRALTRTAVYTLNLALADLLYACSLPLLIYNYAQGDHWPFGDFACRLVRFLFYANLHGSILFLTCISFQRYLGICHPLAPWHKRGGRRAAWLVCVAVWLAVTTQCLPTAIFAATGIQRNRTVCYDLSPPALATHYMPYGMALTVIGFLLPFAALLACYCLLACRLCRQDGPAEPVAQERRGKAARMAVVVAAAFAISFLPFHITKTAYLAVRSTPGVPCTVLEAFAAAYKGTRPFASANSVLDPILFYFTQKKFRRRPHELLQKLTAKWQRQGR
Method: as §1, §2

[4] = test system: PSAPP mice; assay: Hippocampal long-term potentiation (LTP) recording; format: in vivo, mouse; conditions: acute treatment
Method: Hippocampal slices (350 μm thick) were prepared from 6-month-old PSAPP mice. Baseline responses were obtained every 10 seconds and Input-output (I/O) curves, paired-pulse modification and LTP were successively measured. The stimulation intensity was set to a level that gives a value of 30% of the maximum obtained. LTP were induced by high frequency stimulation (HFS, 100 pulses at 100 Hz, four times) or by theta-burst stimulation (TBS, 10 bursts at 5 Hz, repeated 10 times in 15 s intervals).
Accumulated evidence has shown that amyloid peptides naturally secreted or isolated from Alzheimer's brains impair synaptic plasticity, especially hippocampal long-term potentiation (Walsh et al., 2002). Therefore, we further performed LTP recordings in PASPP mice and investigated whether P2Y6 receptor-mediated plaque clearance affects synaptic plasticity. […] First, it was observed that LTP at the schaffer collateral synapse within the CA1 region was depressed in PSAPP mice, as compared with littermates (FIG. 8(A)).

[5] = test system: PSAPP mice; assay: Contextual fear conditioning test (freezing behavior); format: in vivo, mouse
Method: On day one, animals were trained in a fear conditioning apparatus for a total of 7 minutes with a two-pairing paradigm of cue and mild foot shock (a 30-s acoustic-conditioned stimulus, 80 dB; a 2-s shock stimulus, 0.5 mA). To evaluate contextual fear learning, the animals were returned to the training context 24 hours post-training, and freezing behavior was scored for 5 minutes. Freezing behavior was monitored by MotorMonitor (Hamilton Kinder) and scored every 5 seconds.
In this study, the fear conditioning associative learning paradigm was used as a rapid cognition assay for PSAPP mice. This study allowed us to probe cognitive function with a single training day followed in 24 hours by tests for contextual and cued fear learning. Contextual fear learning is dependent upon a brain area that has been implicated as a locus for cognitive decline in AD: the hippocampus. Two pairings of CS—US for fear conditioning were followed 24 hours later by testing for contextual and cued fear learning. Previous studies have reported that PSAPP animals appear to have a selective hippocampus-dependent impairment in associative learning following two pairings of conditioned stimuli for fear conditioning.
This represents a decrease in the cognitive impairment observed in the untreated mice.

[6] = test system: PSAPP mice; assay: Two-photon in vivo imaging of methoxyX04 labeled amyloid plaques in barrel cortex; parameters: species or system mouse; conditions: acute i.c.v. treatment
Source text: In this study, PSAPP mice were anesthetized using isoflurane and a thin-skull preparation was used to minimize the surface damage. Amyloid plaques were visualized with methoxyX04 labeling and blood plasma was labeled with Rhodamine dextran to facilitate re-localization of the same imaging area. Stack images were obtained using a two-photon system (Prairie Technologies) with excitation at 850 nm. The emission was detected by external photomultiplier tubes (525/70; DLCP 575; 607/45 nm). Animals were anesthetized and immobilized in a stereotaxic frame. For each injection, 1 μl of 10 mM UDP or other suitable compounds in artificial cerebrospinal fluid (ACSF) as the vehicle were injected intraventricularly using the following coordinates: AP 0.2 mm, ML 1 mm, and DV 2.2 mm. To evaluate the effect of UDP on plaque burden, two-photon microscopy was used to assess the amyloid plaques in the barrel cortex in living PSAPP mice. Amyloid plaques were stained by systemically administered methoxy-[…]. One day prior to imaging, PSAPP mice were injected with methoxyX04 to label the amyloid plaques. On the imaging day, to facilitate the re-location of the same imaging area, blood plasma was labeled with Rhodamine dextran. Images were obtained from the same start- and end-point to ensure the same image volume. The results were shown in a maximum intensity projection of a fluorescent stack containing 45 planes. Representative images of methoxyX04 labeled amyloid plaques and angiopathy on days 1 are shown in FIG. 1(A)-(C) Immediately after imaging, animals were injected with ACSF or UDP intracerebroventricularly (i.c.v.) and allowed to recover. On day 4, animals were subjected to a second period of imaging of the same regions studied on day 1 and the results are shown in FIG. 1(D)-(F). The similar pattern of angiopathy (shown by open arrows) indicated the same imaging area.

[7] = test system: PSAPP mice; assay: Postmortem immunohistochemistry of plaque load in cortex and hippocampus; format: in vivo, mouse
[8] = test system: PSAPP mice; assay: as above; format: in vivo, mouse; remark: listed apart in the source
Method: Mice were perfused transcardially with 4% paraformaldehyde and 40 μm Coronal sections were collected. Sections were sequentially incubated in 0.3% H2O2 for 10 minutes, blocking solution for 2 hrs, blocking solution containing the primary antibody (rabbit anti-beta 1-42; rabbit anti-beta1-40, from Chemicon International and rat anti-CD45) for 48 hours at 4° C., and blocking solution containing biotinylated antibody or fluorescently-labeled antibody for 2 hours at room temperature. Sections were visualized in a bright field microscope or a confocal microscope, and the optical density was obtained using MetaMorph software.
After repeated imaging, brains were fixed and subjected to postmortem immunohistochemistry with amyloid beta specific antibodies β1-40 and β1-42 to evaluate the plaque load (area occupied by immunostaining of plaque) in cortex and hippocampus.
(§3) PSB0474 was systemically administered to PSAPP mice via intraperitoneal injection for 2, 4 and 6 consecutive days. In one group, prior to evaluation and following to administration for 6 consecutive days, treatment was suspended for two weeks (6+2 weeks group). Brains were then fixed and plaque load was evaluated by immunostaining with the amyloid beta specific antibodies: β1-40 and β1-42. Representative images of plaque load in cortex and hippocampus from animals that received injections of PSB0474 according to the foregoing injection schedules are shown in FIG. 5(A)-(D). […] Whereas, when administration of PSB0474 was stopped for 2 weeks following six consecutive days of treatment (denoted as the 6+2 weeks group), β1-40 staining rebounded; although to a level lower than observed in mice treated with saline as a vehicle control. FIGS. 6A and 6B depict the reduction in plaque load (%) the cortex and hippocampus, respectively, in PSAPP mice after treatment with 3-phenacyl-UDP for 2, 4, or 6 consecutive days, as assayed by staining with the β1-40 antibody. FIGS. 6C-6F depict data obtained following administration of different dosages of PSB0474.
To generate these graphs showing plaque load, mice were euthanized, brain sections cut and antibodies directed against Aβ42 were used to disclose Aβ plaques. Images were acquired digitally and an algorithm was applied to threshold the image so that plaques were isolated from the background. The algorithm then calculated the percent area of the field of view occupied by the plaques.
Brain samples were collected for Abeta analysis with immunostaining. Brains samples were collected after transcardial perfusion with phosphate buffer and 4% paraformaldehyde. Floating brain sections (40 µm) were collected using a microtome. Immunostaining for Aβ40 and Aβ42 were performed according to previously established protocol. Images with DAB staining were collected with brightfield microscopy and analyzed with ImageJ Macro. All data analysis and statistics were performed in GraphPad Prism 6.0.

[9] = test system: PSAPP mice; assay: Tolerability of a higher dose in the plaque burden study; format: in vivo, mouse; conditions: 1000× increase in dose
Method: as §3

[10] = molecular target: T3, P2Y6 receptor; conditions: cited from earlier work
[11] = Oral bioavailability; conditions: in vivo
[12] = Half-life in human whole blood; format: in vitro ADME
[13] = barrel cortex, day 4 vs day 1, P<0.01
[14] = 10 ug/kg i.p. once per day for 7 days, PS1/APP mice, cortex

- elevating Ca2+ levels in P2Y2 receptor expressing cells [1]: not effective
- elevating Ca2+ levels in P2Y4 receptor expressing cells [2]: not effective
- EC50 ([3]; 1321N1 human astrocytoma cells expressing P2Y6, fluo-4 Ca2+): 12 nM
- ability to elevate Ca2+ signals in P2Y6 receptor expressing cells on addition of P2Y6 antagonist MRS2578 ([3]; with MRS2578): attenuated
SMILES: O=c1ccn([C@@H]2O[C@H](COP(=O)(O)OP(=O)(O)O)[C@@H](O)[C@H]2O)c(=O)n1Cc1noc2ccccc12

SMILES: O=c1ccn([C@@H]2O[C@H](COP(=O)(O)OP(=O)(O)O)[C@@H](O)[C@H]2O)c(=O)[nH]1 [UDP, uridine diphosphate]
- LTP at CA1 of hippocampus compared with ACSF ([4]; HFS): significantly increased
- field excitatory postsynaptic potential (fEPSP), last 15 min potentiation ([4]; comparable to littermates): significant increase
- total freezing percentage ([5]; acute i.c.v. treatment, ACSF control 18%±3%): 49%±5%
- reduction in plaque load [6, 13]: 17.2%
- reduction in the number of plaques [6, 13]: 12.6%
- reduction in cross-sectional area of individual identified plaques ([6]; second imaging session, P<0.01): 18.2%
- decrease in plaque load, hippocampus ([7]; β1-42 antibody staining, hippocampus, acute i.c.v., P<0.05): 47%
- decrease in plaque load, cortex ([8]; β1-40 antibody staining, cortex, acute i.c.v., p<0.05): 60%
- decrease in plaque load, hippocampus ([8]; β1-40 antibody staining, hippocampus, acute i.c.v., p<0.01): 62%
- decrease in plaque load, cortex ([8]; β1-42 antibody staining, cortex, acute i.c.v., P<0.01): 48%

SMILES: O=C(Cn1c(=O)ccn([C@@H]2O[C@H](COP(=O)(O)OP(=O)(O)O)[C@@H](O)[C@H]2O)c1=O)c1ccccc1 [3-phenacyl-UDP]
- total freezing percentage in context test ([5]; chronic injection, two doses): increased
- detrimental effects to the animal [9]: did not cause detrimental effects
- selectivity for P2Y6 receptor [10]: > 500 fold
- EC50 ([10]; read-out: EC50, P2Y6 receptor agonist): 70 nM
- effects on the efficacy endpoint at the higher dose ([8]; 1 mg/kg, one week daily): smaller effects
- β1-40 staining after treatment stopped ([8]; 6 consecutive days i.p., then stopped for 2 weeks (6+2 weeks group), level lower than saline control): rebounded
- immunoreactivity of β1-40 in both cortex and hippocampus ([8]; i.p. for 4 and 6 consecutive days): significantly decreased

- bioavailability [11]: 72.2%
- half-life [12]: 16.4 h
SMILES: O=c1ccn([C@@H]2O[C@H](CO)[C@H](O)C2O)c(=O)n1Cc1noc2ccccc12 (some centres unmarked) [compound 5]
- Aβ40 plaque burden [7, 14]: significantly reduced
- size distribution of remaining plaques ([8]; 10 ug/kg i.p. once per day for 7 days, PS1/APP mice): significantly reduced
- Aβ42 plaque burden [8, 14]: significantly reduced
